Reference: patent US8420130B1, “Pharmaceutical formulation of a didemnin compound” (Pharma Mar S.A., priority 1998, dated 2013)

Experiment: Solubility testing of aplidine
Type: physicochemical
Conditions: water
Excerpt: The antitumour agent aplidine (dehydrodidemnin B) is a natural occurring cyclic depsipeptide isolated from the Mediterranean runicate Aplidium albicans. Aplidine has been characterised by using several chromatographic and spectrometric techniques. […] Moreover, the long-term stability of aplidine in solution is currently unknown.

## dehydrodidemnin B [aplidine]
  aqueous solubility: poor aqueous solubility
